Test results from US20140018372A1, “CRYSTALLINE FORM OF A INDOLINONE DERIVATIVE AND ITS USE” (BOEHRINGER INGELHEIM INTERNATIONAL GMBH, priority 2012, published 2014).
Entries after “also recorded” stand apart in the source; their conditions may differ.

Key:
[1] = Water sorption isotherms (DVS); type: physicochemical; settings: sorption isotherms at 25° C.
Description: To study the hygroscopical behaviour of this material, sorption isotherms are registered, e.g. on a DVS-1 water sorption monitor from Surface Measurement Systems. Adsorption and desorption isotherms are performed at 25° C. with 10% r.h. step intervals ranging from 10% r.h. up to 90% r.h.

[2] = Solid state chemical stability; type: physicochemical
Description: The crystalline free base form of 3-{3-[1-(4-Dimethylaminomethyl-phenylamino)-1-phenyl-meth-(Z)-ylidene]-2-oxo-2,3-dihydro-1H-indol-6-yl}-propynoic acid ethylamide according to this invention has further added properties, such as e.g. no sensitivity towards heat, humidity and photolysis in solid state (solid state chemical stability, e.g. 3d @ 70° C. and >90% r.h.: <1% decomposition; 3d @ 105° C.: <1.5% decomposition; 24 h under UV-radiation @ 250 W/m^2: <1.5% decomposition).

Solution state stability = type: physicochemical
Description: In solution state, the compound of formula (I) according to the invention show no or only minor sensitivity towards hydrolysis at pH 2.2-10 (solution state stability, e.g. 0.1M HCl, 8 h @ 37° C.: <1% decomposition; Mc Ilvaine buffer 7.4, 3d @ 60° C.: <1,5% decomposition).

[3] = system: phospho-histone H3 in NCI-H460 cells; test: Analysis of histone H3 phosphorylation in NCI-H460 cells (Cellomics); type: cell-based; settings: Homo sapiens, synchronized H460 NSCLC cells, 1 h treatment, molecular phosphorylation assay, read-out: EC50 for reduction of phospho-histone H3
Excerpt: This CDK1 inhibitor arrests cells in G2. […] The final DMSO concentration was 0.1%.

[4] = system: tumors derived from melanoma cell line G361^V600V/E; test: Human melanoma xenograft G361 in nude mice; type: in vivo; settings: oral qd, Compound A 10 mg/kg, vemurafenib 120 mg/kg; for TGI@d23 [%]: day 23; for CR@d30 [x/7] / PR@d30 [x/7]: day 30
Description: Athymic female BomTac:NMRI-Foxn1^nu mice about six weeks of age are allowed to adjust to ambient conditions for at least five days before they are used for experiments. The animals are housed under standardized conditions in groups of 7-10 in Macrolon® type III cages. Standardized diet (PROVIMI KLIBA) and autoclaved tap water are provided ad libitum. To establish subcutaneous tumors, cells are harvested by trypsinization, centrifuged, washed and resuspended in ice-cold PBS+5% FCS. 100 μL of cell suspension containing, depending on cell type, about 10^6 to 10^7 cells are injected subcutaneously into the right flank of a nude mouse (one site per mouse). Mice are randomly distributed between the treatment and the vehicle control group (12 days after cell injection) when tumors are well established and have reached volumes of 40-120 mm^3
The tumor diameter is measured three times a week (Monday, Wednesday and Friday) with a caliper. The volume of each tumor (in mm^3) is calculated according to the formula “tumor volume=length×diameter^2×π/6”. To monitor side effects of treatment, mice are inspected daily for abnormalities and body weight is determined three times a week (e.g. Monday, Wednesday and Friday). Animals are sacrificed at the end of the study about ten weeks after start of treatment. Animals with necrotic tumors or tumor sizes exceeding 1500 mm^3 are sacrificed early during the studies for ethical reasons.
For a quick overview of possible treatment effects the median of the tumor volume of each treatment group T is related to the median of the tumor volume of control C. Tumor growth inhibition (TGI) from day 1 until day d is calculated as: […]
wherein • C1 and T1 represent the median tumor volumes in the control and treatment groups at start of the experiment at day 1 and • Cd and Td represent the median tumor volumes in the control and treatment groups at end of the experiment at day d.
Mice with tumors derived from melanoma cell line G361^V600V/E are treated orally with the B-Raf inhibitor vemurafenib qd at doses of 120 mg/kg or with 3-{3-[1-(4-Dimethylaminomethyl-phenylamino)-1-phenyl-meth-(Z)-ylidene]-2-oxo-2,3-dihydro-1H-indol-6-yl}-propynoic acid ethylamide (Compound A) qd at doses of 10 mg/kg or with the vehicle only. In addition, mice are treated orally with B-Raf inhibitor vemurafenib qd at doses of 120 mg/kg in combination with Compound A qd at doses of 10 mg/kg.

H460 cells = test: Polyploidy by DNA content analyses (Cellomics ArrayScan); type: cell-based, human; settings: 7 nM, 42 h exposure
[5] = system: phospho-ERK in SK-MEL-28 cells; test: Fast Active Cell-Based ELISA (FACE) SK-MEL-28 p-ERK; settings: Homo sapiens, SK-MEL 28 melanoma cells, read-out: EC50 for reduction of phospho-ERK
Excerpt: Fast Active Cell-Based ELISA (FACE) SK-MEL-28 p-ERK:
The supernatant is removed.

| SMILES | hygroscopical behaviour [1] | decomposition, solid state ([2]; 24 h under UV-radiation @ 250 W/m^2) [%] | decomposition, solid state ([2]; 3d @ 70° C. and >90% r.h.) [%] | decomposition, solid state ([2]; 3d @ 105° C.) [%] | decomposition, solution state (Solution state stability; 0.1M HCl, 8 h @ 37° C.) [%] | decomposition, solution state (Solution state stability; Mc Ilvaine buffer 7.4, 3d @ 60° C.) | EC50 [3] [nM] | mortality [x/7] [4] [x/7] | TGI@d23 [%] [4] [%] | CR@d30 [x/7] [4] [x/7] | PR@d30 [x/7] [4] [x/7] | polyploid cells (H460 cells) [%] | EC50 [5] [nM] |
| --- | --- | --- | --- | --- | --- | --- | --- | --- | --- | --- | --- | --- | --- |
| CCNC(=O)C#Cc1ccc2c(c1)NC(=O)/C2=C(\Nc1ccc(CN(C)C)cc1)c1ccccc1 [3-{3-[1-(4-Dimethylaminomethyl-phenylamino)-1-phenyl-meth-(Z)-ylidene]-2-oxo-2,3-dihydro-1H-indol-6-yl}-propynoic acid ethylamide] | not hygroscopic; also recorded: non-hygroscopic | < 1.5 | < 1 | < 1.5 |  |  |  |  |  |  |  |  |  |
| CCNC(=O)C#Cc1ccc2c(c1)NC(=O)/C2=C(\Nc1ccc(CN(C)C)cc1)c1ccccc1 [Compound A, 3-{3-[1-(4-Dimethylaminomethyl-phenylamino)-1-phenyl-meth-(Z)-ylidene]-2-oxo-2,3-dihydro-1H-indol-6-yl}-propynoic acid ethylamide] |  |  |  |  | < 1 | < 1,5% | 44 | 1 | 45 | 0 | 0 | 81 | 59 |
| CCCS(=O)(=O)Nc1ccc(F)c(C(=O)c2c[nH]c3ncc(-c4ccc(Cl)cc4)cc23)c1F [vemurafenib, reference compound] |  |  |  |  |  |  |  | 0 | 44 | 0 | 0 |  |  |
